From paper PMC7006908 (PLoS ONE, 2020)
Where “and” joins values, the source holds several entries; their conditions need not be identical. Identical values can stand only once. Like-named read-outs stand apart in the source and are kept apart here.

Assays:
[1] = Long term stability of working solutions in methanol at -20°C; type: physicochemical; conditions: for Acc. %, stored at -20ºC over 2 months (methanol): % of nominal
[2] = LC-MS/MS quantification of Cmin in plasma samples from breast cancer patients (clinical study CRO-2018-83); type: in vivo, human; conditions: for concentration at 25 h / concentration at 1 week / concentration at 15 h / concentration at 30 h: human, plasma, oral; for concentration at 25 h / concentration at 1 week: 125 mg/day; for concentration at 25 h: patient 2, sample 3, PALBO 125 mg/day; for concentration at 1 week: patient 3, sample 4, PALBO 125 mg/day; for concentration at 15 h: patient 7, sample 9, PALBO 125 mg/day; for concentration at 30 h: patient 8, sample 10, RIBO 600 mg/day + LETRO 2.5 mg/day
Method: Preparation of calibration curve and QCs samples was conducted through the following steps: 1) 5 μL of working solutions were added to 95 μL of blank human plasma (dilution 1:20) and vortexed for 10 s; 2) a 10 μL-aliquot of this mix was added with 80 μL of cold IS working solution (see “Standard solutions preparation” section), vortexed and then centrifuged for 15 min at 16200 g and 4°C; 3) 70 μL of the supernatant were transferred to a polypropylene tube for the following analysis. […] The preparation of patients’ samples was conducted as following: patient plasma was thawed at room temperature, vortexed for 10 s and centrifuged, for 10 min, at 3000 g and 4°C; 10 μL of plasma was then treated according to steps 2) and 3).
The HPLC system was a SIL-20AC XR auto-sampler and LC-20AD UFLC XR pumps (Shimadzu, Tokyo, Japan). The mobile phases (MP) consisted of ultrapure water with 0.1% HCOOH (phase A) and methanol/isopropanol (9:1, v/v) with 0.1% HCOOH (phase B). The chromatographic separation was obtained on the Luna Omega Polar C18 column ([…], 100 Å, 50 x 2.1 mm) coupled with a Security Guard Cartridge (Polar, C18, 4 x 2.0 mm), both provided by Phenomenex (Castel Maggiore (BO), Italy). The mass spectrometry system used for the detection was an API 4000 triple quadrupole (AB SCIEX, Massachusetts, USA) with a TurboIonSpray source operating in positive ion mode. To optimize source and compound dependent parameters, solutions of each analyte at the concentration of 100 ng/mL were used with a flow rate of 20 μL/min. Data were processed with Analyst 1.6.3 and the quantification of the peaks was done with MultiQuant 2.1 (software package AB SCIEX).
The exclusion criteria were to be non-collaborative and/or unreliable patients and refusal of informed consent. Patients were asked to periodically (every two months) collect plasma samples for the estimation of PALBO or RIBO and/or LETRO Cmin during their therapy treatment.
Plasma was obtained immediately by centrifugation of the blood samples at 3000 g for 10 min at 4°C. Then the obtained plasma was split into two independent aliquots and stored at -80°C in two different freezers.
At present, each of the 10 patients’ samples collected were quantified in 2 separate runs during 2 different working days, to further assess the reproducibility of the proposed method. In fact, as recently introduced in the last version of the FDA guideline, incurred samples re-analysis (ISR) is necessary to show the reliability of the reported analyte concentrations obtained with a bioanalytical method. ISR is conducted by repeating the analysis of a subset of patients’ samples in separate runs. The two analyses can be considered equivalent if the percentage difference [expressed as: (repeat-original)*100/mean] between the first and the second concentration measured is within ±20% for at least 67% of the samples [23, 24].

[3] = Stability of deproteinized QCs in autosampler at 4 °C; type: physicochemical; conditions: for Acc. %, T = 72 h in autosampler (4°C): % of nominal
Method: (§1) Stability tests were conducted using QCs prepared in triplicate at each concentration (L, M, H): bench-top stability was investigated after 4 h at room temperature; stability of the deproteinized QCs was evaluated in autosampler set at 4 °C re-analysing the samples 24, 48, and 72 h after the first injection; freeze/thaw stability was assessed by analysing three freshly prepared aliquots of each QCs concentration, and then again after one and two freeze/thaw cycles.

[4] = Long term stability in human plasma at -80°C; type: in vitro ADME; conditions: for Acc. %, stored at -80ºC over 2 months (plasma): % of nominal
[5] = patients, cited from earlier work
[6] = Bench-top stability in human plasma, 4 h at room temperature; type: in vitro ADME
Method: as §1

[7] = QC high: nominal 200.00 PALBO / 8000.00 RIBO / 400.00 LETRO ng/mL
[8] = QC low: nominal 0.50 PALBO / 20.00 RIBO / 1.00 LETRO ng/mL
[9] = QC medium: nominal 20.00 PALBO / 800.00 RIBO / 40.00 LETRO ng/mL
[10] = reanalysis in second run, read-out: II quantif. plasma concentration (Cmin)
[11] = deproteinized QC high: nominal 200.00 PALBO / 8000.00 RIBO / 400.00 LETRO ng/mL
[12] = deproteinized QC low: nominal 0.50 PALBO / 20.00 RIBO / 1.00 LETRO ng/mL
[13] = deproteinized QC medium: nominal 20.00 PALBO / 800.00 RIBO / 40.00 LETRO ng/mL

CC(=O)c1c(C)c2cnc(Nc3ccc(N4CCNCC4)cn3)nc2n(C2CCCC2)c1=O [PALBO, Palbociclib]
Mean ± SD measured concentration, stored at -20ºC over 2 months (methanol) [1, 7]: 219.18 ± 9.46 ng/mL
Acc. %, stored at -20ºC over 2 months (methanol) [1, 7]: 109.6%
Mean ± SD measured concentration, stored at -20ºC over 2 months (methanol) [1, 8]: 0.52 ± 0.02 ng/mL
Mean ± SD measured concentration, stored at -20ºC over 2 months (methanol) [1, 9]: 22.43 ± 0.63 ng/mL
concentration at 25 h ([2]; 25 h from last capsule intake, read-out: I quantif. plasma concentration (Cmin)): 77.5 ng/mL
concentration at 25 h [2, 10]: 82.4 ng/mL
concentration at 1 week ([2]; last PALBO intake 1 week before sampling, read-out: I quantif. plasma concentration (residual)): 1.6 ng/mL
concentration at 1 week ([2]; last intake 1 week before sampling, reanalysis in second run, read-out: II quantif. plasma concentration (residual)): 1.5 ng/mL
concentration at 15 h ([2]; LETRO 2.5 mg/day, last pill intake 15 h before sampling, read-out: I quantif. plasma concentration (Cmin)): 97.9 ng/mL
concentration at 15 h ([2]; LETRO 2.5 mg/day, reanalysis in second run, read-out: II quantif. plasma concentration (Cmin)): 96.2 ng/mL
I quantif. plasma concentration (Cmin) ([2]; patient 1, sample 1, PALBO 125 mg/day): 53.0 ng/mL
II quantif. plasma concentration (Cmin) ([2]; patient 1, sample 1, PALBO 125 mg/day, reanalysis in second run): 55.9 ng/mL
I quantif. plasma concentration (Cmin) ([2]; patient 2, sample 2, PALBO 125 mg/day): 76.9 ng/mL
II quantif. plasma concentration (Cmin) ([2]; patient 2, sample 2, PALBO 125 mg/day, reanalysis in second run): 84.2 ng/mL
I quantif. plasma concentration (Cmin) ([2]; patient 4, sample 5, PALBO 100 mg/day): 70.7 ng/mL
II quantif. plasma concentration (Cmin) ([2]; patient 4, sample 5, PALBO 100 mg/day, reanalysis in second run): 74.3 ng/mL
I quantif. plasma concentration (Cmin) ([2]; patient 5, sample 6, PALBO 125 mg/day): 39.5 ng/mL
II quantif. plasma concentration (Cmin) ([2]; patient 5, sample 6, PALBO 125 mg/day, reanalysis in second run): 43.0 ng/mL
I quantif. plasma concentration (Cmin) ([2]; patient 5, sample 7, PALBO 125 mg/day): 41.5 ng/mL
II quantif. plasma concentration (Cmin) ([2]; patient 5, sample 7, PALBO 125 mg/day, reanalysis in second run): 46.1 ng/mL
I quantif. plasma concentration (Cmin) ([2]; patient 6, sample 8, PALBO 125 mg/day, LETRO 2.5 mg/day): 69.7 ng/mL
II quantif. plasma concentration (Cmin) ([2]; patient 6, sample 8, PALBO 125 mg/day, LETRO 2.5 mg/day, reanalysis in second run): 74.0 ng/mL
Mean ± SD measured concentration, T = 72 h in autosampler (4°C) [3, 11]: 215.60 ± 8.28 ng/mL
Acc. %, T = 72 h in autosampler (4°C) [3, 11]: 107.8%
Mean ± SD measured concentration, T = 72 h in autosampler (4°C) [3, 12]: 0.54 ± 0.02 ng/mL
Acc. %, T = 72 h in autosampler (4°C) [3, 12]: 108.2%
Mean ± SD measured concentration, T = 72 h in autosampler (4°C) [3, 13]: 21.10 ± 1.23 ng/mL
Acc. %, T = 72 h in autosampler (4°C) [3, 13]: 105.5%

CN(C)C(=O)c1cc2cnc(Nc3ccc(N4CCNCC4)cn3)nc2n1C1CCCC1 [RIBO, ribociclib]
Mean ± SD measured concentration, stored at -80ºC over 2 months (plasma) [4, 7]: 7699.21 ± 117.73 ng/mL
Acc. %, stored at -80ºC over 2 months (plasma) [4, 7]: 96.2%
Mean ± SD measured concentration, stored at -80ºC over 2 months (plasma) [4, 8]: 21.10 ± 1.05 ng/mL
Acc. %, stored at -80ºC over 2 months (plasma) [4, 8]: 105.5%
Mean ± SD measured concentration, stored at -80ºC over 2 months (plasma) [4, 9]: 789.37 ± 28.89 ng/mL
Acc. %, stored at -80ºC over 2 months (plasma) [4, 9]: 98.7%
in vivo RIBO plasma concentration (CV), Cmin, population mean ([5]; 20 (ref 19)): 711 ng/mL and 711 (72.9) ng/mL
in vivo RIBO plasma concentration (CV), upper end of range [5]: 3500 (65.8) ng/mL
Mean ± SD measured concentration, stored at -20ºC over 2 months (methanol) [1, 7]: 8522.63 ± 68.65 ng/mL
Acc. %, stored at -20ºC over 2 months (methanol) [1, 7]: 106.5%
Mean ± SD measured concentration, stored at -20ºC over 2 months (methanol) [1, 8]: 19.52 ± 0.30 ng/mL
Acc. %, stored at -20ºC over 2 months (methanol) [1, 8]: 97.6%
Mean ± SD measured concentration, stored at -20ºC over 2 months (methanol) [1, 9]: 885.44 ± 35.25 ng/mL
Acc. %, stored at -20ºC over 2 months (methanol) [1, 9]: 110.7%
concentration at 30 h ([2]; 30 h from last pills intake, read-out: I quantif. plasma concentration (Cmin)): 396 ng/mL
concentration at 30 h [2, 10]: 419 ng/mL
Mean ± SD measured concentration, T = 4h (RT) ([6]; plasma QC high: nominal 200.00 PALBO / 8000.00 RIBO / 400.00 LETRO ng/mL): 7218.92 ± 402.94 ng/mL
Mean ± SD measured concentration, T = 4h (RT) ([6]; plasma QC low: nominal 0.50 PALBO / 20.00 RIBO / 1.00 LETRO ng/mL): 18.86 ± 0.74 ng/mL
Mean ± SD measured concentration, T = 4h (RT) ([6]; plasma QC medium: nominal 20.00 PALBO / 800.00 RIBO / 40.00 LETRO ng/mL): 751.88 ± 27.56 ng/mL
Mean ± SD measured concentration, T = 72 h in autosampler (4°C) [3, 11]: 8274.93 ± 207.29 ng/mL
Acc. %, T = 72 h in autosampler (4°C) [3, 11]: 103.4%
Mean ± SD measured concentration, T = 72 h in autosampler (4°C) [3, 12]: 21.24 ± 1.45 ng/mL
Acc. %, T = 72 h in autosampler (4°C) [3, 12]: 106.2%
Mean ± SD measured concentration, T = 72 h in autosampler (4°C) [3, 13]: 815.31 ± 36.72 ng/mL
Acc. %, T = 72 h in autosampler (4°C) [3, 13]: 101.9%
